Entries after “also recorded” stand apart in the source; their conditions may differ.
What was measured:
ENR+CD organoids = assay: Primary screen: ATP (CellTiter-Glo 3D, CTG) cell number/viability, 2.5-D 384-well ENR+CD organoids; details: primary screen;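 note: compounds given at plating and again on day 3 over a 6-day differentiation from ENR+CV stem-cell-enriched precursors, ATP measured on day 6, plate median as control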
[1] = system: ENR+CD organoids (ISC to Paneth cell differentiation); assay: Primary screen: basal (non-stimulated) lysozyme secretion LYZ.NS, 2.5-D 384-well ENR+CD organoid differentiation; assay type: cell-based, mouse; details: for Dose.FC.LYZ.NS (log2 fold change) / Z.LYZ.NS (standard z score): primary screen
Text: (§1) High-throughput screening.

[2] = system: ENR+CD organoids (ISC to Paneth cell differentiation); assay: Primary screen: CCh-stimulated lysozyme secretion LYZ.S, 2.5-D 384-well ENR+CD organoid differentiation; assay type: cell-based, mouse; details: for Dose.FC.LYZ.S: primary screen
Text: as §1

O=c1cc(-c2cccc3c2Sc2ccccc2S3)oc(N2CCOCC2)c1 [KU-55933 (ATM Kinase Inhibitor)]
Z.CTG (standard z score) (ENR+CD organoids; dose 0.08 uM): 1.251 | Z.CTG (standard z score) (ENR+CD organoids; dose 0.40 uM): 1.140 | Z.CTG (standard z score) (ENR+CD organoids; dose 2.00 uM): 1.317 | Z.CTG (standard z score) (ENR+CD organoids; dose 10.00 uM): 1.293

CNC(=O)c1cc(Oc2ccc(NC(=O)Nc3cc(C(C)(C)C)nn3-c3ccc4ncccc4c3)c(F)c2)ccn1 [Rebastinib, reference compound]
primary screen hit call (SSMD and z-scored FC cutoffs in both LYZ assays) ([1]; LYZ.NS and LYZ.S, 0.08-10 uM, 6 days ENR+CD): excluded from the hit list due to underperformance on all three assays compared to Bosutinib

KX2-391
Dose.FC.LYZ.NS (log2 fold change) ([1]; dose 0.08 uM): −0.283 | Z.LYZ.NS (standard z score) ([1]; dose 0.08 uM): −2.468 | Z.LYZ.NS (standard z score) ([1]; dose 0.40 uM): −2.546 | Dose.FC.LYZ.NS (log2 fold change) ([1]; dose 2.00 uM): −0.251 | Z.LYZ.NS (standard z score) ([1]; dose 2.00 uM): −2.188 | Dose.FC.LYZ.NS (log2 fold change) ([1]; dose 10.00 uM): −0.286 | Z.LYZ.NS (standard z score) ([1]; dose 10.00 uM): −2.494 | Z.CTG (standard z score) (ENR+CD organoids; dose 0.08 uM): −1.796 | Z.CTG (standard z score) (ENR+CD organoids; dose 0.40 uM): −2.989 | Z.CTG (standard z score) (ENR+CD organoids; dose 2.00 uM): −4.737 | Z.CTG (standard z score) (ENR+CD organoids; dose 10.00 uM): −3.377

C[N+](C)(C)CCOC(N)=O.[Cl-] [CCh, carbamoylcholine chloride, reference compound]
secreted LYZ in LYZ.NS assay, CCh-stimulated vs non-stimulated ENR+CD controls ([1]; 10 uM CCh, adj. p<0.0001): significantly greater | secreted LYZ in LYZ.S assay, controls subsequently stimulated with CCh vs non-stimulated ([2]; 10 uM CCh, adj. p<0.05): showed significant differences; also recorded: significant increase in secreted LYZ

CC(C)C[C@H](NC(=O)[C@H](Cc1ccccc1)NC(=O)c1cnccn1)B(O)O [Bortezomib (PS-341)]
Dose.FC.LYZ.S ([2]; dose 0.08 uM): −0.239 log2 fold change | Dose.FC.LYZ.S ([2]; dose 0.40 uM): −0.173 log2 fold change | Dose.FC.LYZ.S ([2]; dose 2.00 uM): −0.249 log2 fold change | Dose.FC.LYZ.S ([2]; dose 10.00 uM): −0.238 log2 fold change | Dose.FC.CTG (ENR+CD organoids; dose 0.08 uM): −1.904 log2 fold change | Z.CTG (standard z score) (ENR+CD organoids; dose 0.08 uM): −4.547 | Dose.FC.CTG (ENR+CD organoids; dose 0.40 uM): −2.146 log2 fold change | Z.CTG (standard z score) (ENR+CD organoids; dose 0.40 uM): −5.127 | Dose.FC.CTG (ENR+CD organoids; dose 2.00 uM): −0.915 log2 fold change | Z.CTG (standard z score) (ENR+CD organoids; dose 2.00 uM): −2.185 | Dose.FC.CTG (ENR+CD organoids; dose 10.00 uM): −1.359 log2 fold change | Z.CTG (standard z score) (ENR+CD organoids; dose 10.00 uM): −3.246

C=CC(=O)Nc1cccc(Oc2nc(Nc3ccc(N4CCN(C)CC4)cc3OC)ncc2Cl)c1 [WZ4002]
Dose.FC.LYZ.S ([2]; dose 0.08 uM): 0.114 log2 fold change | Dose.FC.LYZ.S ([2]; dose 0.40 uM): 0.046 log2 fold change | Dose.FC.LYZ.S ([2]; dose 2.00 uM): −0.109 log2 fold change | Dose.FC.LYZ.S ([2]; dose 10.00 uM): −0.319 log2 fold change | Dose.FC.CTG (ENR+CD organoids; dose 0.08 uM): 0.313 log2 fold change | Z.CTG (standard z score) (ENR+CD organoids; dose 0.08 uM): 0.748 | Dose.FC.CTG (ENR+CD organoids; dose 0.40 uM): 0.082 log2 fold change | Z.CTG (standard z score) (ENR+CD organoids; dose 0.40 uM): 0.196 | Dose.FC.CTG (ENR+CD organoids; dose 2.00 uM): 0.151 log2 fold change | Z.CTG (standard z score) (ENR+CD organoids; dose 2.00 uM): 0.360 | Dose.FC.CTG (ENR+CD organoids; dose 10.00 uM): −0.941 log2 fold change | Z.CTG (standard z score) (ENR+CD organoids; dose 10.00 uM): −2.248

CC1=C(/C=C/C(C)=C/C=C/C(C)=C\C(=O)O)C(C)(C)CCC1 [Isotretinoin]
Z.LYZ.NS (standard z score) ([1]; dose 0.40 uM): 0.407 | Z.LYZ.NS (standard z score) ([1]; dose 2.00 uM): 0.578 | Z.LYZ.NS (standard z score) ([1]; dose 10.00 uM): 0.718

— US20220323406A1, “METHODS AND COMPOSITIONS FOR DIFFERENTIATING STEM CELLS” (Massachusetts Institute of Technology, priority 2019, published 2022)
